According to EPA's ToxRefDB 2:

What was measured:
rat [1] = conditions: Subchronic oral toxicity in rodents, fischer, Feed, dose end: 13 week, group: systemic, systemic / clinical chemistry / alanine aminotransferase (alt/sgpt) / alanine aminotransferase (alt/sgpt) + systemic / clinical chemistry / …
rat [2] = conditions: Prenatal developmental toxicity study, sprague dawley, Oral, Gavage/Intubation, dose end: 15 GD
rat [3] = conditions: Subchronic oral toxicity in rodents, fischer, Feed, dose end: 13 week, group: systemic, systemic / in life observation / body weight / body weight gain + systemic / in life observation / food consumption / food consumption + …
rat [4] = conditions: Prenatal developmental toxicity study, sprague dawley, Oral, Gavage/Intubation, dose end: 15 GD; remark: listed apart in the source
mouse [5] = conditions: Subchronic oral toxicity in rodents, cd1, Feed, dose end: 3 month, group: systemic
rat [6] = conditions: Subchronic oral toxicity in rodents, Feed, dose end: 13 week, group: systemic
rat [7] = conditions: Prenatal developmental toxicity study, other, Oral, Gavage/Intubation, dose end: 15 GD
dog [8] = conditions: Chronic toxicity, beagle, Oral, Feed, dose end: 52 week, group: systemic
dog [9] = conditions: Subchronic oral toxicity in nonrodent, beagle, Feed, dose end: 3 month, group: systemic
mouse [10] = conditions: Carcinogenicity; cd1; Oral; Feed; dose end: 78 week; group: systemic; systemic / organ weight / liver / nos + systemic / pathology microscopic / liver / hypertrophy + systemic / pathology microscopic / liver / …
rat [11] = conditions: Multigenerational reproductive toxicity study, sprague dawley, Oral, Feed, dose end: 2 generation
rat [12] = conditions: Combined chronic toxicity/carcinogenicity, sprague dawley, Oral, Feed, dose end: 2 year, group: systemic
[13] = group: developmental, developmental / developmental malformation / bone / exencephaly + developmental / developmental malformation / bone / thread-like + …
[14] = group: maternal, systemic / in life observation / body weight / body weight gain + systemic / in life observation / food consumption / food consumption
[15] = group: developmental, developmental / developmental malformation / bone / absent + developmental / developmental malformation / bone / bent + developmental / …
[16] = group: maternal, systemic / in life observation / body weight / body weight gain
[17] = systemic / pathology microscopic / liver / hypertrophy
[18] = systemic / pathology microscopic / liver / hypertrophy + systemic / clinical chemistry / alanine aminotransferase (alt/sgpt) / alanine …
[19] = systemic / pathology microscopic / liver / vacuolization
[20] = systemic / pathology microscopic / liver / vacuolization + systemic / clinical chemistry / cholesterol / cholesterol + systemic / clinical …
[21] = group: developmental, developmental / developmental malformation / bone / short supernumerary + systemic / in life observation / body weight / fetal weight
[22] = group: maternal, reproductive / reproductive performance / implantations / implantations + reproductive / reproductive performance / resorptions / …
[23] = systemic / in life observation / body weight / body weight gain
[24] = systemic / in life observation / body weight / body weight gain + systemic / clinical chemistry / alkaline phosphatase (alp/alk) / alkaline …
[25] = systemic / pathology microscopic / liver / hypertrophy + systemic / clinical chemistry / alkaline phosphatase (alp/alk) / alkaline …
[26] = group: offspring, developmental / offspring survival late / viability index / viability index + systemic / in life observation / body weight / offspring (pup…
[27] = group: parental, systemic / in life observation / body weight / body weight + systemic / in life observation / food consumption / food consumption + systemic…
[28] = group: reproductive, reproductive / reproductive performance / dystocia / dystocia + reproductive / reproductive performance / gestational length / gestational …
[29] = systemic / hematology / hematocrit (hct) / hematocrit (hct) + systemic / hematology / hemoglobin (hgb) / hemoglobin (hgb) + systemic / …

SMILES: CC(C)[NH3+].O=C([O-])COc1ccc(Cl)cc1Cl [2,4-D, isopropylamine salt]
- LEL (rat [1]): 187 mg/kg/day
- LOAEL (rat [1]): 187 mg/kg/day
- NEL (rat [1]): 28 mg/kg/day
- NOAEL (rat [1]): 28 mg/kg/day
- LEL (rat [2]; [13]): 190 mg/kg/day
- LOAEL (rat [2]; [13]): 190 mg/kg/day
- NEL (rat [2]; [13]): 65 mg/kg/day
- NOAEL (rat [2]; [13]): 65 mg/kg/day
- LEL (rat [2]; [14]): 190 mg/kg/day
- LOAEL (rat [2]; [14]): 190 mg/kg/day
- NEL (rat [2]; [14]): 65 mg/kg/day
- NOAEL (rat [2]; [14]): 65 mg/kg/day
- LEL (rat [3]): 127 mg/kg/day
- LOAEL (rat [3]): 127 mg/kg/day
- NEL (rat [3]): 19 mg/kg/day
- NOAEL (rat [3]): 19 mg/kg/day
- LEL (rat [4]; [15]): 100 mg/kg/day
- LOAEL (rat [4]; [15]): 100 mg/kg/day
- NEL (rat [4]; [15]): 32.5 mg/kg/day
- NOAEL (rat [4]; [15]): 32.5 mg/kg/day
- LEL (rat [4]; [16]): 32.5 mg/kg/day
- LOAEL (rat [4]; [16]): 32.5 mg/kg/day
- NEL (rat [4]; [16]): < 32.5 mg/kg/day
- NOAEL (rat [4]; [16]): < 32.5 mg/kg/day

SMILES: N#CC(CCc1ccc(Cl)cc1)(Cn1cncn1)c1ccccc1 (stereo not drawn) [Fenbuconazole]
- LEL (mouse [5]; [17]): 11.1 mg/kg/day
- LOAEL (mouse [5]; [17]): 11.1 mg/kg/day
- NEL (mouse [5]; [18]): 3.8 mg/kg/day
- NOAEL (mouse [5]; [18]): 3.8 mg/kg/day
- LEL (rat [6]; [19]): 5.1 mg/kg/day
- LOAEL (rat [6]; [19]): 5.1 mg/kg/day
- NEL (rat [6]; [20]): 1.3 mg/kg/day
- NOAEL (rat [6]; [20]): 1.3 mg/kg/day
- LEL (rat [7]; [21]): 150 mg/kg/day
- LOAEL (rat [7]; [21]): > 150 mg/kg/day
- NEL (rat [7]; [21]): 75 mg/kg/day
- NOAEL (rat [7]; [21]): ≥ 150 mg/kg/day
- LEL (rat [7]; [22]): 75 mg/kg/day
- LOAEL (rat [7]; [22]): 75 mg/kg/day
- NEL (rat [7]; [22]): 30 mg/kg/day
- NOAEL (rat [7]; [22]): 30 mg/kg/day
- LEL (dog [8]; [23]): 3.75 mg/kg/day
- LOAEL (dog [8]; [23]): 3.75 mg/kg/day
- NEL (dog [8]; [24]): 0.38 mg/kg/day
- NOAEL (dog [8]; [24]): 0.38 mg/kg/day
- LOAEL (dog [9]; [17]): 13.3 mg/kg/day
- NEL (dog [9]; [25]): 3.3 mg/kg/day
- NOAEL (dog [9]; [25]): 3.3 mg/kg/day
- LEL (dog [9]; systemic / pathology microscopic / liver / hypertrophy + systemic / organ weight / liver / absolute + systemic / organ weight / liver / …): 13.3 mg/kg/day
- LEL (mouse [10]): 26.3 mg/kg/day
- LOAEL (mouse [10]): 26.3 mg/kg/day
- NEL (mouse [10]): 1.28 mg/kg/day
- NOAEL (mouse [10]): 1.28 mg/kg/day
- LEL (rat [11]; [26]): 40 mg/kg/day
- LOAEL (rat [11]; [26]): 40 mg/kg/day
- NEL (rat [11]; [26]): 4 mg/kg/day
- NOAEL (rat [11]; [26]): 4 mg/kg/day
- LOAEL (rat [11]; [27]): 40 mg/kg/day
- NEL (rat [11]; [27]): 0.4 mg/kg/day
- NOAEL (rat [11]; [27]): 4 mg/kg/day
- LEL (rat [11]; group: parental, systemic / organ weight / liver / absolute + systemic / organ weight / liver / relative to body weight): 4 mg/kg/day
- LEL (rat [11]; [28]): 40 mg/kg/day
- LOAEL (rat [11]; [28]): 40 mg/kg/day
- NEL (rat [11]; [28]): 4 mg/kg/day
- NOAEL (rat [11]; [28]): 4 mg/kg/day
- LEL (rat [12]; systemic / hematology / hematocrit (hct) / hematocrit (hct) + systemic / hematology / hemoglobin (hgb) / hemoglobin (hgb)): 3.03 mg/kg/day
- NEL (rat [12]; [29]): 0.31 mg/kg/day
- NOAEL (rat [12]; [29]): 3.03 mg/kg/day
- LOAEL (rat [12]; systemic / pathology microscopic / thyroid gland / adenoma/carcinoma combined + systemic / organ weight / liver / absolute + systemic / …): 30.6 mg/kg/day
